Literature values as cited in paper PMC5084670 (Cancer Science, 2016).

Experiments:
[1] = cited from earlier work
[2] = cited from earlier work; remark: listed apart in the source
[3] = system: murine model of MB with deletion of PTCH1; details: cited from earlier work
[4] = system: primary human muscle cells; details: cited from earlier work
[5] = patients from Europe and the USA, CLDE225X2101 study

## Cc1c(C(=O)Nc2ccc(N3C[C@@H](C)O[C@@H](C)C3)nc2)cccc1-c1ccc(OC(F)(F)F)cc1 [Sonidegib]
[1]; CLDE225X2101 study
  Rhabdomyolysis, patients: three
[1]; as reported in non-Asian patients
  Half-life (t 1/2): ~ 28 days
[1]; cycle 1 day 15, 400 mg, non-Asian patients (CLDE225X2101)
  AUClast: 8806 ng·h/mL
[1]; [5]
  Maximum tolerated dose (MTD), once daily: 800 mg q.d.
  Maximum tolerated dose (MTD), twice daily: 250 mg b.i.d.
[2]
  Commonly reported AE: alopecia: 63%
  Commonly reported AE: asthenia: 36%
  Commonly reported AE: dysgeusia: 70%
  Commonly reported AE: weight loss: 46%
[3]
  Antitumor activity: antitumor activity
[4]
  Effect on muscle cells: induce muscle contraction and muscle fiber twitching
